The values that follow come from patent US7863315B2, “2-indolinone derivatives as selective histone deacetylase inhibitors” (Shenzhen Chipscreen Biosciences, Ltd., priority 2008, dated 2011).

Test [1] has as its system total HDAC enzyme (HeLa extract). In words: In vitro inhibition of total HDAC enzyme activity (HDAC Fluorimetric Assay/Drug Discovery Kit, BIOMOL). It counts as biochemical, human. On the procedure: Measurement of in vitro inhibition of total HDAC enzyme activity:
The in vitro inhibition of total HDAC enzyme was determined by HDAC Fluorimetric Assay/Drug Discovery Kit (BIOMOL) according to manufacture's instruction. • 1. Add Assay buffer, diluted trichostatin A or test inhibitor to appropriate wells of the microtiter plate. Following table lists examples of various assay types and the additions required for each test.
• 2. Add diluted HeLa extract or other HDAC sample to all wells except those that are to be “No Enzyme Controls” (Blank). • 3. Allow diluted Fluor de LyS™ Substrate and the samples in the microtiter plate to equilibrate to assay temperature (25° C.). • 4. Initiate HDAC reactions by adding diluted substrate (25 μl) to each well and mixing thoroughly. • 5. Allow HDAC reactions to proceed for desired length of time and then stop them by addition of Fluor de Lys™ Developer (50 μl). Incubate plate at room temperature (25° C.) for 10-15 min. • 6. Read samples in a microtiter-plate reading fluorimeter capable of excitation at a wavelength in the range 350-380 nm and detection of emitted light in the range 440-460 nm.

Test [2] addresses T1, HDAC6 (α-tubulin acetylation) (Homo sapiens, UniProt Q9UBN7).
T1 construct: endogenous in cells; host or cells: HeLa
T1 sequence (Q9UBN7 1-1215): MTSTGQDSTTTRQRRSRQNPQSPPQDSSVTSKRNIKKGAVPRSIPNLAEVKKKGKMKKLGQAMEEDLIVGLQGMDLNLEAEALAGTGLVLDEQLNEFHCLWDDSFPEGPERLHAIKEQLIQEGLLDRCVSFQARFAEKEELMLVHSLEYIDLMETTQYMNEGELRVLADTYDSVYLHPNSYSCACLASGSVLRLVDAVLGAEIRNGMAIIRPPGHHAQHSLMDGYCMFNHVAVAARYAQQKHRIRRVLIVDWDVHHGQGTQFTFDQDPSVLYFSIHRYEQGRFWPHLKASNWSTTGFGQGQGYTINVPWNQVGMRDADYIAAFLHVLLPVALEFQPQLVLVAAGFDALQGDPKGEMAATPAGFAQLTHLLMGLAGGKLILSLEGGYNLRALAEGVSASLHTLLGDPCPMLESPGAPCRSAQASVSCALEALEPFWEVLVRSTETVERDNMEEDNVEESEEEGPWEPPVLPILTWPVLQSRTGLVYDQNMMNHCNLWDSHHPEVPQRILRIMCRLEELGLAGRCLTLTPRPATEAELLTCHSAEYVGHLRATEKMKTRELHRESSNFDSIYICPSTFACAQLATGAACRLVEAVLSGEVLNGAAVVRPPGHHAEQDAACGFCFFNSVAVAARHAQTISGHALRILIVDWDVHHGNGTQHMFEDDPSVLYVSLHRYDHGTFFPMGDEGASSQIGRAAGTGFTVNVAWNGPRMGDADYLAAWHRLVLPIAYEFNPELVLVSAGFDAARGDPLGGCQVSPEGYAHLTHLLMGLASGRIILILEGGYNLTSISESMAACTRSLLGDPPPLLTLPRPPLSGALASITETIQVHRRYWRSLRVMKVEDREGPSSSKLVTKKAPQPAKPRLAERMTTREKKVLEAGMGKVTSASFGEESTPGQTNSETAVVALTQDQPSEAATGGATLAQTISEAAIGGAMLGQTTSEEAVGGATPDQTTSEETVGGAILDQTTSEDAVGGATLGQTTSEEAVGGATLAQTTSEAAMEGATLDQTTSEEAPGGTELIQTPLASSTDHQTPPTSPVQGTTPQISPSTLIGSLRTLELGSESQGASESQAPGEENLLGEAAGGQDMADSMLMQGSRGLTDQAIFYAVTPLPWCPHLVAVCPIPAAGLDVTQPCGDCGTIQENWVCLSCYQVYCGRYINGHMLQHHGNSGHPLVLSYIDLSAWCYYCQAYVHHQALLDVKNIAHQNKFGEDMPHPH
Description: ELISA assay of acetylation of α-tubulin in HeLa cells. It counts as cell-based. The following applies: M-HeLa, 24 hours. On the procedure: Measurement of acetylation activity in cells on substrates:
ELISA assay of acetylation of α-tubulin
This assay is used to measure in vivo inhibition of HDAC6 in a cytoblot assay. Materials and Reagent: • 1. 24-well tissue culture • 2. DMEM Medium containing 10% FBS • 3. 96-well white plate • 4. HeLa cell line • 5. M-PER Mammalian Protein Extraction Reagent (Pierce) • 6. Bradford assay reagent • 7. Anti-acetyl-tubulin (Upstate) • 8. HRP-labeled anti-mouse IgG (Upstate) • 9. Coating Buffer: 15 mM Na2CO3, 35 mM NaHCO3 (pH 9.6) • 10. 10×PBS: 0.58 M Na2HPO4, 0.17M NaH2PO4, 0.68M NaCl (pH 7.4) • 11. Wash Buffer:1×PBS containing 0.05% Tween-20 (PBST) • 12. Blocking Buffer:10 mg/ml bocine serum albumin (BSA) in PBS • 13. Antibody Dilution Buffer: 5 mg/ml BSA in PBST • 14. Enhanced chemiluminescence (ECL) (Amersham)
Procedure for performing the assay in 96-well plate: • 1. HeLa cells were seeded at a density of 60000 cells/500 μl/well in 24-well plate and incubated at 37° C. for 24 hours. • 2. Compounds were added and incubated for 24 hours at 37° C. • 3. Culture medium was removed, then washes the cells twice with ice-cold PBS. • 4. Add 100 μl/well of Protein Extraction Reagent and gently shake the mixture for 5 minutes. • 5. Collect the lysate to a 96-well plate respectively. Determine the concentration of protein by Bradford assay. • 6. Coat the wells of a 96-well white plate with 100 μl/well of 2.5 μg whole cell protein in Coating Buffer by incubating overnight at 4° C. • 7. Discard the uncoated proteins and wash the coated wells three times with 200 μl/well of PBST. • 8. Block coated wells by incubating the plate with 200 μl/well of Blocking Buffer for 1 hour at 37° C. • 9. Wells were aspirated and washed three times with 200 μl/well of PBST. • 10. After aspirating, 50 μl/well of Antibody Dilution Buffer containing anti-Ac-tubulin (1:1000) were added to each well and incubated for 2 hour at 37° C. • 11. Wells were aspirated and washed three times with 200 μl/well of PBST. • 12. 50 μl/well of Antibody Dilution Buffer containing HRP-labeled anti-mouse IgG (1:2000) were added to each well and incubated for 2 hour at 37° C. • 13. Wells were aspirated and washed three times with 200 μl/well of PBST. • 14. Wells were washed three times with 200 μl/well of purified water. • 15. Add 50 μl/well of ECL mixture, then read the plates on the plate reader.
A general note: In an ELISA, binding on a coated surface is turned into a signal by an enzyme label.

As for `Nc1ccccc1NC(=O)CCCCCNC(=O)c1cccc(/C=C2\C(=O)Nc3ccc(F)cc32)c1` [Example 44, 6-(3-((5-fluoro-2-oxoindolin-3-ylidene)methyl)benzamido)-N-(2-aminophenyl)hexanamide], in test [1], the “% of Inhibition on Total HDAC Enzyme at 30 μM” value (“% of Inhibition” for short) came out at 30%. The fold induction at 10 µM in test [2] was 2.66.
In the case of `O=C(CCCCCNC(=O)c1ccc(/C=C2\C(=O)Nc3ccc(F)cc32)cc1)NO` [Example 41, 6-(4-((5-fluoro-2-oxoindolin-3-ylidene)methyl)benzamido)-N-hydroxyhexanamide], the “% of Inhibition” value in test [1] came to 96%. The fold induction at 10 µM in test [2] came to 1.47.
For `Nc1ccccc1NC(=O)CCCCCNC(=O)c1ccc(/C=N/N=C2\C(=O)Nc3ccc(F)cc32)cc1` [Example 32, 6-(4-(((5-fluoro-2-oxoindolin-3-ylidene)hydrazono)methyl)benzamido)-N-(2-aminophenyl)hexanamide], the “% of Inhibition” value in test [1] turned out to be 20%. Besides, in test [2], the fold induction at 10 µM is 2.59.
Taken in the same sequence, the figures for `Cc1[nH]c(/C=N/N=C2\C(=O)Nc3ccc(F)cc32)c(C)c1C(=O)NCCCCCC(=O)NO` [Example 11, 6-(5-(((5-fluoro-2-oxoindolin-3-ylidene)hydrazono)methyl)-2,4-dimethyl-1H-pyrrole-3-carboxamido)-N-hydroxyhexanamide] were 86% and 2.17.
Taken in the same sequence, the figures for `Nc1cc(F)ccc1NC(=O)CCCCCCCNC(=O)c1ccc(/C=N/N=C2\C(=O)Nc3ccc(F)cc32)cc1` [Example 36, 8-(4-(((5-fluoro-2-oxoindolin-3-ylidene)hydrazono)methyl)benzamido)-N-(2-amino-4-fluorophenyl)octanamide] were −16% and 1.57.
Turning to `O=C(CCCCNC(=O)c1cccc(/C=C2\C(=O)Nc3ccc(F)cc32)c1)NO` [Example 51, 5-(3-((5-fluoro-2-oxoindolin-3-ylidene)methyl)benzamido)-N-hydroxypentanamide], in test [1], the “% of Inhibition” value is listed as 86%. In test [2], the fold induction at 10 µM stood at 1.97.
Taken in the same sequence, the figures for `O=C(CCCCCNC(=O)c1ccc(/C=N/N=C2\C(=O)Nc3ccc(F)cc32)cc1)NO` [Example 31, 6-(4-(((5-fluoro-2-oxoindolin-3-ylidene)hydrazono)methyl)benzamido)-N-hydroxyhexanamide] were 89% and 1.88.
For the molecule `Nc1cc(F)ccc1NC(=O)CCCCCNC(=O)c1ccc(/C=C2\C(=O)Nc3ccc(F)cc32)cc1` [Example 40, 6-(4-((5-fluoro-2-oxoindolin-3-ylidene)methyl)benzamido)-N-(2-amino-4-fluorophenyl)hexanamide], in test [1], the “% of Inhibition” value is listed as 22%. For the same molecule, in test [2], the fold induction at 10 µM came out at 1.04.
Taken in the same sequence, the figures for `Nc1ccccc1NC(=O)CCCCCNC(=O)c1ccc(/C=C2\C(=O)Nc3ccc(F)cc32)cc1` [Example 39, 6-(4-((5-fluoro-2-oxoindolin-3-ylidene)methyl)benzamido)-N-(2-aminophenyl)hexanamide] were 31% and 0.93.
On to `Nc1cc(F)ccc1NC(=O)CCCCNC(=O)c1cccc(/C=C2\C(=O)Nc3ccc(F)cc32)c1` [Example 50, 5-(3-((5-fluoro-2-oxoindolin-3-ylidene)methyl)benzamido)-N-(2-amino-4-fluorophenyl)pentanamide], for which the “% of Inhibition” value in test [1] is −3%. In test [2], the fold induction at 10 µM was determined as 1.97.
As for `Nc1cc(F)ccc1NC(=O)CCCCCNC(=O)c1cccc(/C=C2\C(=O)Nc3ccc(F)cc32)c1` [Example 45, 6-(3-((5-fluoro-2-oxoindolin-3-ylidene)methyl)benzamido)-N-(2-amino-4-fluorophenyl)hexanamide], in test [1], the “% of Inhibition” value was found to be 30%. Besides, the fold induction at 10 µM in test [2] was 1.64.
Take `Cc1[nH]c(/C=N/N=C2\C(=O)Nc3ccc(F)cc32)c(C)c1C(=O)NCCCCCC(=O)Nc1ccccc1N` [Example 13, 6-(5-(((5-fluoro-2-oxoindolin-3-ylidene)hydrazono)methyl)-2,4-dimethyl-1H-pyrrole-3-carboxamido)-N-(2-aminophenyl)hexanamide]: the “% of Inhibition” value in test [1] stood at 30%. For the same molecule, the fold induction at 10 µM in test [2] was determined as 2.73.
Take `Cc1[nH]c(/C=N/N=C2\C(=O)Nc3ccc(F)cc32)c(C)c1C(=O)NCCCCC(=O)Nc1ccc(F)cc1N` [Example 8, 5-(5-(((5-fluoro-2-oxoindolin-3-ylidene)hydrazono)methyl)-2,4-dimethyl-1H-pyrrole-3-carboxamido)-N-(2-amino-4-fluorophenyl)pentanamide]: in test [1], the “% of Inhibition” value was −26%. Also, the fold induction at 10 µM in test [2] turned out to be 1.76.
With `Cc1[nH]c(/C=N/N=C2\C(=O)Nc3ccc(F)cc32)c(C)c1C(=O)NCCCCCCCC(=O)NO` [Example 26, 8-(5-(((5-fluoro-2-oxoindolin-3-ylidene)hydrazono)methyl)-2,4-dimethyl-1H-pyrrole-3-carboxamido)-N-hydroxyoctanamide], the “% of Inhibition” value in test [1] was 98%. Also, the fold induction at 10 µM in test [2] was 1.85.
On to `Cc1[nH]c(/C=N/N=C2\C(=O)Nc3ccc(F)cc32)c(C)c1C(=O)NCCCCCC(=O)Nc1ccc(F)cc1N` [Example 12, 6-(5-(((5-fluoro-2-oxoindolin-3-ylidene)hydrazono)methyl)-2,4-dimethyl-1H-pyrrole-3-carboxamido)-N-(2-amino-4-fluorophenyl)hexanamide], for which the “% of Inhibition” value in test [1] was determined as 14%. The fold induction at 10 µM in test [2] was 2.04.

For orientation: fold induction means the ratio of treated to control signal.
